The values that follow come from paper PMC5485019 (2017).

Experiment [1] deals with F10T (DNA, hairpin, hexaethylene glycol (HEG) linker between nucleotides 10 and 11) TATAGCTATATATAGCTATA
Briefly: FRET melting. The conditions noted are these: 10 mM KCl, 90 mM LiCl, 10 mM Li cacodylate, 200 nM DNA.

Experiment [2] has as its system F21T (DNA, G4) GGGTTAGGGTTAGGGTTAGGG
Briefly: FRET melting. The note with it: 10 mM Li cacodylate, 1 μM ligand, 200 nM DNA.

For experiment [3], the system named is FMycT (F-Myc-T) (DNA, G4) TTGAGGGTGGGTAGGGTGGGTAA
Briefly: FRET melting. The conditions noted are these: 1 mM KCl, 99 mM LiCl, 10 mM Li cacodylate, 200 nM DNA.

Experiment [4] shares this test system. Kind of experiment: FRET melting. The conditions noted are these: 1 mM KCl, 99 mM LiCl; 10 mM Li cacodylate; 1 μM ligand, 200 nM DNA.
Experiment [5] deals with telo23 (DNA, G4) TAGGGTTAGGGTTAGGGTTAGGG
Kind of experiment: ITC. The conditions noted are these: K+ (100 mM potassium phosphate); pH 7.4, 25 °C (298 K); 15 µM DNA; bracket = 68.3 % confidence interval.

Experiment [6] shares this test system. Briefly: CD titration. The conditions noted are these: Na+ (100 mM sodium phosphate); pH 7.4 (main text 7.2); 4.22 µM DNA; antiparallel shifts towards hybrid.
In experiment [7] the test system is F10T (DNA, hairpin, hexaethylene glycol (HEG, (-CH2CH2O-)6) linker between nucleotides 10 and 11) TATAGCTATATATAGCTATA
Kind of experiment: FRET melting. The conditions noted are these: 10 mM KCl, 90 mM LiCl; 10 mM Li cacodylate; 1 μM ligand, 200 nM DNA.

Experiment [8] deals with F21T (DNA, G4) GGGTTAGGGTTAGGGTTAGGG
Kind of experiment: FRET melting. The conditions noted are these: 10 mM Li cacodylate, 200 nM DNA.

The mark [9] stands for this setting: 10 mM KCl, 90 mM LiCl, 1 μM ligand.
Setting [10] is: 100 mM NaCl, 1 μM ligand, no stabilization up to 10 μM.
Where [11] appears, read: 100 mM NaCl, no stabilization up to 10 μM.
[12] abbreviates: 1 µM ligand, no stabilization up to 10 µM.

For the compound `CN(C)CCCN1C(=O)c2ccc3c4c(ccc(c24)C1=O)C(=O)N(CCCN(C)C)C3=O`, the ΔT max in experiment [1] (1 μM ligand) is 1.1±0.1 °C; in experiment [2] (10 mM KCl, 90 mM LiCl) it was 2.3±0.5 °C; in experiment [2] (100 mM NaCl), −1.5±0.2 °C; in experiment [3] (1 μM ligand), 3.9±0.2 °C.
As to `CN1CCN(CCCN2C(=O)c3ccc4c5c(ccc(c35)C2=O)C(=O)N(CCCN2CCN(C)CC2)C4=O)CC1`, the ΔT max in experiment [4] was 0.5±0.3 °C; in experiment [7], 0.3±0.2 °C; in experiment [8] (setting [9]), 9.8±0.6 °C; in experiment [8] (setting [10]), −2.3±0.3 °C. Also, the K a in experiment [5] is given as 1.03 (0.865,1.23) × 10^6 M^-1. In addition, the binding result in experiment [6] is reported as “yes”.
With `C[n+]1ccc(-c2c3nc(c(-c4cc[n+](C)cc4)c4ccc([nH]4)c(-c4cc[n+](C)cc4)c4nc(c(-c5cc[n+](C)cc5)c5ccc2[nH]5)C=C4)C=C3)cc1`, the “∆Tmax” value in experiment [8] (setting [9]) worked out at 27.4 ± 0.4 °C.
With `Cn1cc[n+](CCCN2C(=O)c3ccc4c5c(ccc(c35)C2=O)C(=O)N(CCC[n+]2ccn(C)c2)C4=O)c1`, the ΔT max in experiment [4] was 1.8±0.8 °C; in experiment [2] (10 mM KCl, 90 mM LiCl) it was 3.7±0.3 °C; in experiment [2] (100 mM NaCl), −0.5±0.4 °C; in experiment [7], 0.1±0.1 °C. Further, the K a in experiment [5] is given as 2.16 (1.85,2.52) × 10^6 M^-1.
On to `Cn1cc[n+](CCN2C(=O)c3ccc4c5c(ccc(c35)C2=O)C(=O)N(CC[n+]2ccn(C)c2)C4=O)c1`, for which the ΔT max in experiment [4] was 1±0.4 °C; in experiment [2] (10 mM KCl, 90 mM LiCl), 1.3±0.4 °C; in experiment [2] (setting [11]), −0.6±0.5 °C; in experiment [7], 0.4±0.2 °C.
In the same order, the values of `Cn1cc[n+](C[C@H]2O[C@@H](OCCN3C(=O)c4ccc5c6c(ccc(c46)C3=O)C(=O)N(CCO[C@@H]3O[C@H](C[n+]4ccn(C)c4)[C@@H](O)[C@H](O)[C@H]3O)C5=O)[C@H](O)[C@@H](O)[C@@H]2O)c1` are 0.9±0.7 °C, 2.9±0.3 °C, −1.5±0.4 °C and 0.1±0.2 °C.
Regarding `Cn1cc[n+](C[C@H]2O[C@H](OCCN3C(=O)c4ccc5c6c(ccc(c46)C3=O)C(=O)N(CCO[C@H]3O[C@H](C[n+]4ccn(C)c4)[C@@H](O)[C@H](O)[C@@H]3O)C5=O)[C@@H](O)[C@@H](O)[C@@H]2O)c1`, the ΔT max in experiment [1] (1 µM ligand, 3.2 °C at 10 µM) is −0.1±0.1 °C; in experiment [3] (1 µM ligand, 10.5 °C at 10 µM) it was −0.3±0.7 °C; in experiment [8] (setting [9]), 10.1±0.3 °C; in experiment [8] (setting [10]), −1.4±0.3 °C. Further, in experiment [5], the K a is listed as 1.30 (1.02,1.64) × 10^6 M^-1. Besides, the binding entry in experiment [6] is on record as “yes”.
Consider `O=C1c2ccc3c4c(ccc(c24)C(=O)N1CCO[C@@H]1O[C@H](CO)[C@@H](O)[C@H](O)[C@H]1O)C(=O)N(CCO[C@@H]1O[C@H](CO)[C@@H](O)[C@H](O)[C@H]1O)C3=O`, for which the ΔT max in experiment [1] (setting [12]) was 0.5±0.2 °C; in experiment [2] (setting [11]), −0.1±0.5 °C; in experiment [3] (setting [12]), −0.3±0.4 °C; in experiment [8] (10 mM KCl, 90 mM LiCl, 1 µM ligand, no stabilization up to 10 µM) it was 0.4±0.1 °C.
